Reference: patent US10683506B2, “CD117 ligand-drug conjugates for targeted cancer therapy” (THE METHODIST HOSPITAL SYSTEM, priority 2015, dated 2020)

Tests used:
Type in all cases: cell-based
[1] = system: CD117-negative control cells (U937); assay: Cell growth inhibition by MTT assay
Protocol: (§1) Cell growth inhibition was monitored by MTT (MTT (3-[4,5-dimethylthiazol-2-yl]-2,5-diphenyltetrazolium bromide) assay post treatment. Cells (5000) were treated by CD117 Apt-MTX or equal molar free MTX in RPMI 1640 medium for 2 h. After replacement with fresh medium containing 10% serum, cells were cultured for an additional 48 hours and then 10 μl of MTT solution (5 mg/mL in PBS) were added to each well. After a further 4 h of incubation, the culture medium was removed and the formazan crystals in the cells were solubilized with 100 μl of DMSO for 15 minutes. The UV absorbance at 570 nm was measured with a microplate reader.

AML cells (HEL) = assay: Cell growth inhibition by MTT assay
Protocol: as §1

[2] = system: CD117-negative control cells (U937); assay: Apoptosis assay, Annexin V staining, flow cytometry; conditions: 10 nM MTX payload or equal molar
Protocol: (§2) Treated cells also were investigated by apoptosis assay. Annexin V-APC staining (BD Biosciences, San Jose, Calif.) was performed according to the manufacturer's instructions. The cell samples were analyzed using a FACS caliber (BD Biociences, San Jose, Calif., USA) flow cytometry equipped with cellquest software.

HEL cells = assay: as above; conditions: 10 nM MTX payload or equal molar
Protocol: as §2

## CN(Cc1cnc2nc(N)nc(N)c2n1)c1ccc(C(=O)N[C@@H](CCC(=O)O)C(=O)O)cc1 [free MTX, Methotrexate]
[1]; U937, 10 nM MTX, treated 2 hours, cultured 48 hr
  effect on cell proliferation (in words): minimal effect on both cells
[1]; U937, 100 nM final concentration
  inhibition: about 30%
AML cells (HEL); 100 nM final concentration
  inhibition: about 30%
AML cells (HEL); equal molar (10 nM MTX), treated 2 hours, cultured 48 hr
  effect on cell proliferation (in words): minimal effect on both cells
[2]
  cell apoptosis / toxicity: minimal effect on both HEL and control cells
HEL cells
  cell apoptosis: minimal effect on both HEL and control cells
